According to patent US10030103B2, “Stable helical ionic polypeptides” (The Board of Trustees of the University of Illinois, priority 2010, dated 2018):

Experiments:
[1] = Circular dichroism (CD) analysis of polypeptide conformation in aqueous solution; format: physicochemical
Description: CD measurements were carried out on a JASCO J-700 CD spectrometer in a quartz disc with a light path length of 1 cm at 0.01-0.1 mg/mL in DI water at room temperature or under conditions otherwise indicated.
The CD study was performed on a JASCO J-700 or on a J-720 CD spectrometer. Polymer samples were prepared at concentrations of 0.01-0.1 mg/mL at pH 3 unless otherwise specified. The solution was placed in a quartz cell with light path of 0.2 cm. The mean residue molar ellipticity of each polymer was calculated based on the measured apparent ellipticity, the molar concentration of polymer and the m.w. of the repeating unit. The CD experiments were carried out at room temperature unless otherwise specified. For temperature-dependency study, the temperature of the sample chamber which hosts the quartz cell was controlled by a water bath (from 4° C. to 70° C.).
The samples were equilibrated at corresponding temperature for at least 10 min before the CD measurements. For the sample preparations, the polymers were dissolved in DI water or in a solution containing NaCl, urea or methanesulfonic acid (MSA). For the pH-dependency study, the pH of the polymer solution was tuned by the addition of a concentrated HCl or NaOH solution.
The CD study was performed on a JASCO J-700 and J-720 CD spectrometer. Polymer samples were prepared at a concentration of 0.05 mg/mL in general unless otherwise specified. The solution was placed in a quartz disc with light path of 0.5 cm. Mean residue molar ellipticity was calculated based on the ellipticity obtained, concentration of polymer and the molar weight of the repeating unit.
The CD study was performed on a JASCO J-700 and J-720 CD spectrometer. The polymer samples were prepared at concentrations of 0.01-0.1 mg/mL in general unless otherwise specified. The solution was placed in a quartz cell with a path length of 0.5 cm. […] For the helix-temperature dependency study, the temperature of the sample chamber where the quartz cell was placed was controlled by a water bath (from 4° C. to 70° C.). […]

[2] = test system: DHSα E. coli; test: Inhibition of bacterial growth in Luria broth (OD650); format: cell-based; details: up to 100 μg/mL, seven hours, 37° C.
Description: Luria broth (1×) was prepared containing known concentrations of the three polymers between 0 μg/mL and 100 μg/mL and dispensed (200 μL aliquots) in triplicate into the wells of a clear polystyrene 96-well plate. Separate wells containing the antibiotic kanamycin at 50 μg/mL were also prepared as a control. The wells were then inoculated with DHSα E. coli and left to grow at 37° C. with agitation. After seven hours, the plate was removed and the absorbance of 650 nm light was measured for each well (OD650). In general, as bacterial growth was inhibited, the resulting OD650 decreased. The average OD650 was then plotted for each sample (FIG. 50).

[3] = test system: COS-7 cells; test: In vitro transfection of COS-7 cells with polymer/DNA complexes (pCMV-Luc, luciferase expression); format: cell-based; details: listed as PVBLG40-1
Description: DNA/polymer complexes were prepared at room temperature by dissolving DNA (0.35 μg) in 150 mM NaCl, 20 mM HEPES (175 μL). An equal volume of 25-kDa branched PEI, lipofectamine 2000 or PVBLGn-X in 150 mM NaCl, 20 mM HEPES was added to achieve the desired weight ratio. The final complexes were incubated at room temperature for 15 min before further use. […] The transfection medium was replaced with fresh serum-supplemented growth medium 4 h post-transfection.
Luciferase expression was quantified 24 h post-transfection using the Promega Bright-Glo luciferase assay system (Promega, Madison, Wis.). Luciferase activity was measured in relative light units (RLU) using a PerkinElmer plate reader with luminescence capabilities (Waltham, Mass.). Results were normalized to total cell protein using the Pierce BCA protein assay kit (Rockford, Ill.). Transfections were performed in triplicate.

Substance: Poly(γ-(4-aminoethylthiopropoxyl)-benzyl-L-glutamate) [(PAOBLG-AET)10]
- pH dependence of −[θ]222 / helical conformation ([1]; pH range as stated in the value): remained unchanged when the solution's pH was increased from 1 to 8

Substance: poly(L-lysine) [PLL75]
- conformation by CD ([1]; aqueous solution, pH 1): completely random coil conformation

Substance: poly-L-lysine [(PLL)60]
- Helical content ([1]; Table 9-2, (−[θ]222 + 3000)/39,000): 0%

Substance: poly(γ-(4-(1-hexanol-6-aminomethyl))benzyl-L-glutamate) [PVBLG-1]
- antimicrobial properties [2]: Neither PVBLGn-1 nor PVBLGn-8 displayed antimicrobial properties

Substance: poly(γ-(4-(1-hexanol-6-aminomethyl))benzyl-L-glutamate) [(PVBLG-1)40]
- transfection efficiency [3]: on par with 25-kDa branched polyethylenimine (PEI)
